Results from ChEMBL document CHEMBL1132679, “Highly increased cellular accumulation of vincristine, a useful hydrophobic antitumor-drug, in multidrug-resistant solid cancer cells induced by a simply reduced taxinine” (1999).

Experiment: Relative activity on the cellular accumulation of vincristine in multidrug-resistant (MDR) human ovarian cancer 2780AD cells
Format: functional, A2780 ADR

Q: For `CC(=O)O[C@H]1[C@@H]2[C@H](C)[C@@H](OC(=O)CCc3ccccc3)CC[C@@]2(C)[C@@H](OC(C)=O)[C@H](OC(C)=O)C2=C(C)C(=O)C[C@@H]1C2(C)C`, which Relative activity is on record?
A: 44

Q: For `C=C1[C@@H](OC(=O)CCC2CCCCC2)CC[C@@]2(C)[C@@H](OC(C)=O)[C@H](OC(C)=O)C3=C(C)C(=O)C[C@@H]([C@@H](OC(C)=O)[C@H]12)C3(C)C`, which Relative activity is on record?
A: 97

Q: For `C=C1[C@@H](OC(=O)CCc2ccccc2)CC[C@@]2(C)[C@@H](OC(C)=O)[C@H](OC(C)=O)C3=C(C)C(=O)C[C@@H]([C@@H](OC(C)=O)[C@H]12)C3(C)C`, which Relative activity is on record?
A: 227

Q: With `C=C1[C@@H](OC(C)=O)CC[C@@]2(C)[C@@H](OC(C)=O)[C@H](OC(C)=O)C3=C(C)C(=O)C[C@@H]([C@@H](OC(C)=O)[C@H]12)C3(C)C` as the compound, how does the Relative activity read?
A: 93

Q: For `C=C1[C@@H](OC(=O)/C=C/c2ccccc2)CC[C@@]2(C)[C@@H](OC(C)=O)[C@H](OC(C)=O)C3=C(C)C(=O)C[C@@H]([C@@H](OC(C)=O)[C@H]12)C3(C)C`, which Relative activity is on record?
A: 77

Q: For `CC(=O)O[C@H]1[C@@H]2[C@H](C)[C@@H](OC(=O)/C=C/c3ccccc3)CC[C@@]2(C)[C@@H](OC(C)=O)[C@H](OC(C)=O)C2=C(C)C(=O)C[C@@H]1C2(C)C`, which Relative activity is on record?
A: 44

Q: With `CC(=O)O[C@H]1[C@@H]2[C@H](C)[C@@H](O)CC[C@@]2(C)[C@@H](OC(C)=O)[C@H](OC(C)=O)C2=C(C)C(=O)C[C@@H]1C2(C)C` as the compound, how does the Relative activity read?
A: 48

Q: For `C=C1[C@@H](OCOCc2ccccc2)CC[C@@]2(C)[C@@H](OC(C)=O)[C@H](OC(C)=O)C3=C(C)C(=O)C[C@@H]([C@@H](OC(C)=O)[C@H]12)C3(C)C`, which Relative activity is on record?
A: 158

Q: For `C=C1[C@@H](O)CC[C@@]2(C)[C@@H](OC(C)=O)[C@H](OC(C)=O)C3=C(C)C(=O)C[C@@H]([C@@H](OC(C)=O)[C@H]12)C3(C)C` [TAXININE A], which Relative activity is on record?
A: 64

Q: Which Relative activity does the source give for `COc1ccc(CCN(C)CCCC(C#N)(c2ccc(OC)c(OC)c2)C(C)C)cc1OC` (stereo not given) [VERAPAMIL] here?
A: 100
